From patent EP0003212A1, “2.4-Diamino-5-benzylpyrimidines, pharmaceutical compositions containing them and their preparation” (F. HOFFMANN-LA ROCHE & CO. Aktiengesellschaft, priority 1977, dated 1979)
pIC50: −log10 of the molar value. Read-outs that look alike come from different tables or passages of the source.

Legend:
E. coli 1346 = test: In vitro antibacterial activity (MIC); format: cell-based; settings: strain E. coli 1346, unit not given
[1] = target: bakterielle Dihydrofolsäurereduktase (DHFR) (Escherichia coli, UniProt P0ABQ4); test: 50% inhibition of bacterial dihydrofolate reductase; format: biochemical, E. coli
Text: Die Verbindungen der Formel I und ihre Salze sind antibakteriell wirksam. Sie hemmen die bakterielle Dihydrofolsäurereduktase (DHFR) und potenzieren darüberhinaus die Wirkung von Sulfonamiden und anderen Dihydrofolsäuresynthetasehemmern. Beispiele von Sulfonamiden, die durch die erfindungsgemässen Verbindungen potenziert werden, sind solche der Pyrimidin-, Isoxazol-, Oxazol- und Pyrazinreihe wie Sulfadiazin, Sulfadimethoxin, Sulfadoxin, Sulfamerazin, Sulfameter, Sulfamethazin, 6-Methoxy-4-sulfanilamidopyrimidin, Sulfamethoxazol, Sulfisoxazol, 3-Sulfanilamido-4,5-dimethyl-isoxazol, Sulfamoxol und Sulfalen. Quantitativ zeichnen sich die erfindungsgemässen Verbindungen gegenüber bekannten Verbindungen durch niedrigere 50%ige Hemmkonzentrationen der bakteriellen DHFR, beispielsweise bei E. coli, und durch wesentlich höhere Q-Werte (50%ige Hemmung der DHFR bei Ratte/50%ige Hemmung der DHFR bei E. coli), die ein Mass für die Selektivität der Hemmung der bakteriellen DHFR darstellen, sowie durch geringe Toxizität aus.

S. aureus Schoch. = test: In vitro antibacterial activity (MIC); format: cell-based; settings: strain S. aureus Schoch., unit not given
[2] = DHFR of E. coli, read-out: 50% Hemmung der DHFR (M x 10^-8) E. coli

SMILES | Aktivität in vitro (MIC) E. coli 1346 (E. coli 1346) | pIC50 [1] | Aktivität in vitro (MIC) S. aureus Schoch. (S. aureus Schoch.) | pIC50 [1, 2]
CSc1cc(C)c(Cc2cnc(N)nc2N)cc1SC [R^1=CH3, R^2=H, R^3=SCH3, R^4=SCH3, 2,4-Diamino-5-[2-methyl-4,5-bis-(methylthio)-benzyl]-pyrimidin] | 0,7 | 7.82 | 0,7 | –
CSc1ccc(Cc2cnc(N)nc2N)cc1SC [R^1=H, R^2=H, R^3=SCH3, R^4=SCH3] | – | – | 0,7 | 7.80
COCCSc1c(OC)cc(Cc2cnc(N)nc2N)cc1OC [R^1=H, R^2=OCH3, R^3=SC2H4OCH3, R^4=OCH3] | – | – | 1,0 | 7.01
CCSc1c(OC)cc(Cc2cnc(N)nc2N)cc1OC [R^1=H, R^2=OCH3, R^3=SC2H5, R^4=OCH3, 2,4-Diamino-5-[4-(äthylthio)-3,5-dimethoxybenzyl]-pyrimidin] | 0,04 | – | 0,4 | 8.74
COc1cc(Cc2cnc(N)nc2N)cc(OC)c1SC [R^1=H, R^2=OCH3, R^3=SCH3, R^4=OCH3, 2,4-Diamino-5-[3,5-dimethoxy-4-(methylthio)-benzyl]-pyrimidin] | 0,02 | 8.46 | 0,4 | –
COc1c(Br)cc(Cc2cnc(N)nc2N)cc1SC [R^1=H, R^2=SCH3, R^3=OCH3, R^4=Br] | 0,2 | – | 1,0 | 7.96
COc1cc(Cc2cnc(N)nc2N)cc(SC)c1OC [R^1=H, R^2=SCH3, R^3=OCH3, R^4=OCH3] | 0,1 | – | 0,78 | 8.30
COc1c(SC)cc(Cc2cnc(N)nc2N)cc1SC [R^1=H, R^2=SCH3, R^3=OCH3, R^4=SCH3] | 0,7 | – | 0,2 | 8.14
CSc1cc(Cc2cnc(N)nc2N)cc(SC)c1SC [R^1=H, R^2=SCH3, R^3=SCH3, R^4=SCH3] | 0,2 | – | 0,2 | 8.35
CSc1cc(Cc2cnc(N)nc2N)cc(SC)c1-n1cccc1 [R^1=H, R^2=SCH3, R^3=[drawing], R^4=SCH3] | > 1 | – | 4,0 | 8.28
